The numbers were not newly measured in patent publication US20240010628A1, “METHODS OF MANUFACTURE OF R-MDMA” (Mind Medicine, Inc., priority 2022, published 2024), which cites them from elsewhere.

For series [1] the following is noted: in vivo.
The target in another series is 5-HT2A receptors (Homo sapiens, UniProt P28223).
The subject of series [2] is parkinsonian animal model.
The target of another series is DAT (Homo sapiens, UniProt Q01959).
The target in the next series is SERT (Homo sapiens, UniProt P31645).
Chain of SERT (P31645 whole entry, species assumed): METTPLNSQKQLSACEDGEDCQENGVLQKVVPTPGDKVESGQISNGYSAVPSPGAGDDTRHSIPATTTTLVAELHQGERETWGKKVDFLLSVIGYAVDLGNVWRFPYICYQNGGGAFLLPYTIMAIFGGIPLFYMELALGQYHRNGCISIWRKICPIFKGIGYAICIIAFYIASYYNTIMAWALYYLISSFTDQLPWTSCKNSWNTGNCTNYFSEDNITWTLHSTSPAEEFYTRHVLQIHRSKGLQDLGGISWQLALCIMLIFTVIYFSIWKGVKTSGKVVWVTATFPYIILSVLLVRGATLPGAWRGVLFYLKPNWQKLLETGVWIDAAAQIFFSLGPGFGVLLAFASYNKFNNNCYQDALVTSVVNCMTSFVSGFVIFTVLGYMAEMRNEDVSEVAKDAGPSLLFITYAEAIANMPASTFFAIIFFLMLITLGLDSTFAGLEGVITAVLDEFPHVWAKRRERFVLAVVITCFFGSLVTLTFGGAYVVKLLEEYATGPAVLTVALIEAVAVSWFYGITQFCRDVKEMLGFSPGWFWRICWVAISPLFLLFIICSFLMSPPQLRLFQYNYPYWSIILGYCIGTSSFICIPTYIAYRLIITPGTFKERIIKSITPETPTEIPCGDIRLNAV

Chain of DAT (Q01959 whole entry, species assumed): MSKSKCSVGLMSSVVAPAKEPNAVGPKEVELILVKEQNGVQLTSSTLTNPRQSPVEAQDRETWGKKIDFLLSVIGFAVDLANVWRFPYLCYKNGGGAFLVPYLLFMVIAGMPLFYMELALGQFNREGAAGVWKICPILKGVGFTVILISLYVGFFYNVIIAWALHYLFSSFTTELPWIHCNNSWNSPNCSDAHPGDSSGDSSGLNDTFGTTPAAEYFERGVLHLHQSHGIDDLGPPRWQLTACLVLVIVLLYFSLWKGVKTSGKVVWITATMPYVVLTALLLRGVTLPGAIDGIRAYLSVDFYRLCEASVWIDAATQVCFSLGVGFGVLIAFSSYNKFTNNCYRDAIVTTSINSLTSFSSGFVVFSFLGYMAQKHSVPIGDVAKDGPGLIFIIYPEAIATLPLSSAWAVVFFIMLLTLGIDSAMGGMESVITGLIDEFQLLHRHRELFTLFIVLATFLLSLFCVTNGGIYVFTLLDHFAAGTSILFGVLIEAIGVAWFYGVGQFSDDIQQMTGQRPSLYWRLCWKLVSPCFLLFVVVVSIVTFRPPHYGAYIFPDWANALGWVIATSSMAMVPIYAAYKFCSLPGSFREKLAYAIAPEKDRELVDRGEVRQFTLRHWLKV
Chain of 5-HT2A receptors (P28223 whole entry): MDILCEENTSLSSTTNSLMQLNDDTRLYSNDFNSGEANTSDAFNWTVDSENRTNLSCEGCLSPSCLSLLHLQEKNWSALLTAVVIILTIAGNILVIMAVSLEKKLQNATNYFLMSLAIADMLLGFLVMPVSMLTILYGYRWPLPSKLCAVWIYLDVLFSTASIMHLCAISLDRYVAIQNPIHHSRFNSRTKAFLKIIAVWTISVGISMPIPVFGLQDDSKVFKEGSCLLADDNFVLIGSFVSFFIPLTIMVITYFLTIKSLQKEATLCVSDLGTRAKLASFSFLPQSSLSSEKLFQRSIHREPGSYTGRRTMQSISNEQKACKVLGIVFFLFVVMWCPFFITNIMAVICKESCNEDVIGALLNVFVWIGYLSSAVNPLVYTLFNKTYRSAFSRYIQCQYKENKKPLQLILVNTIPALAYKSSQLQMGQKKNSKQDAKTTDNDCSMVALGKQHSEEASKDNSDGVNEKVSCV

As for `CN[C@H](C)Cc1ccc2c(c1)OCO2` [R-MDMA, (R)-1-(benzo[d][1,3]dioxol-5-yl)-N-methylpropan-2-amine], the “efficacy as a releaser of dopamine” value with dopamine is “low efficacy”. The hyperthermia result in series [1] was “does not produce hyperthermia”. Further, on 5-HT2A receptors, the “selectivity for 5-HT2A receptors” value was “selective compound for 5-HT2A receptors”. For the same compound, in series [2], the “duration of good ON-time” value is reported as “increased” and the “severity of peak-dose dyskinesia / dyskinesia” value is listed as “decreased”.

In the case of `CNC(C)Cc1ccc2c(c1)OCO2` (racemic) [racemic MDMA, 3,4-Methylenedioxymethamphetamine, reference compound], in series [2], the “severity of peak-dose dyskinesia / dyskinesia” value was “reducing dyskinesia” and the “total duration of ON-time” value was “extending ON-time”.

In the case of `CN[C@@H](C)Cc1ccc2c(c1)OCO2` [S-MDMA, (S)-1-(benzo[d][1,3]dioxol-5-yl)-N-methylpropan-2-amine], the “affinity for DAT” value at DAT is reported as “moderate affinity”. The “affinity for SERT” value on SERT was “high affinity”. In series [2], the “severity of peak-dose dyskinesia / dyskinesia” value was “exacerbated” and the “total duration of ON-time” value is given as “extended”.
